Measurements as given in the C3SDB collision cross section collection.

Settings: [M+H]+; instrument: DT; single field, calibrated with Agilent tune mix (Agilent)

collision cross section (N2)	Structure (SMILES)
290.2 Å²	CCCCCCCCCCCCC=CC[C@@H](O)[C@H](COP(=O)([O-])OCC[N+](C)(C)C)NC(=O)CCCCCCCCCCCCCCCCC [SM(d18:1/18:0)]

Settings: [M+H]+; instrument: DT; single field, calibrated with Agilent tune mix (Agilent)
Remark: another data set of the same source

collision cross section (N2)	Structure (SMILES)
277.1 Å²	CCCCC/C=C\C/C=C\CCCCCCCCCC(=O)O[C@H](CO/C=C\CCCCCCCCCCCCCC)COP(=O)(O)OCCN [PE(p36:2)]
281.5 Å²	CCCCC/C=C\C/C=C\C/C=C\C/C=C\CCCCCC(=O)O[C@H](CO/C=C\CCCCCCCCCCCCCC)COP(=O)(O)OCCN [PE(p38:4)]
300.2 Å²	CCCCC/C=C\C/C=C\CCCCCCCCCCCC(=O)O[C@H](COC(=O)CCCCCCC/C=C\C/C=C\CCCCC)COP(=O)([O-])OCC[N+](C)(C)C [PC(40:4)]

Same assay, conditions: [M+NH4]+; instrument: DT; single field, calibrated with Agilent tune mix (Agilent)

collision cross section (N2)	Structure (SMILES)
296.6 Å²	CC/C=C\C/C=C\C/C=C\C/C=C\CCCCC(=O)O[C@H](COC(=O)CCCCCCCCCCC/C=C\C/C=C\CCCCC)COP(=O)(O)OC[C@@H](O)CO [PG(40:6)]
274.5 Å²	CCCCC/C=C\C/C=C\CCCCCCCC(=O)O[C@H](COC(=O)CCCCCCCCCCCCCCCCC)COP(=O)(O)O [PA(36:2)]

Same assay, conditions: [M+Na]+; instrument: DT; single field, calibrated with Agilent tune mix (Agilent)

collision cross section (N2)	Structure (SMILES)
292.4 Å²	CC/C=C\C/C=C\C/C=C\C/C=C\CCCCC(=O)O[C@H](COC(=O)CCCCCCCCCCC/C=C\C/C=C\CCCCC)COP(=O)(O)OC[C@@H](O)CO [PG(40:6)]
274 Å²	CCCCC/C=C\C/C=C\CCCCCCCC(=O)O[C@H](COC(=O)CCCCCCCCCCCCCCCCC)COP(=O)(O)O [PA(36:2)]

Same assay, conditions: [M-H]-; instrument: DT; single field, calibrated with Agilent tune mix (Agilent)

collision cross section (N2)	Structure (SMILES)
267.6 Å²	CCCCC/C=C\C/C=C\CCCCCCCCCC(=O)O[C@H](CO/C=C\CCCCCCCCCCCCCC)COP(=O)(O)OCCN [PE(p36:2)]
260.2 Å²	CCCCC/C=C\C/C=C\CCCCCCCC(=O)O[C@H](COC(=O)CCCCCCCCCCCCCCCCC)COP(=O)(O)O [PA(36:2)]

Settings: [M+2K]2+; instrument: TW; calibrated with phosphatidylcholines (ESI+) and phosphatidylethanolamines (ESI-), doubly charged cardiolipins calibrated with poly-DL-…

collision cross section (N2)	Structure (SMILES)
421.5 Å²	CCCCCC/C=C\CCCCCCCC(=O)OC(COC(=O)CCCCCCCCCCCCCCC)COP(=O)(O)OCC(O)COP(=O)(O)OCC(COC(=O)CCCCCCCCCCCCCC)OC(=O)CCCCCCCCCCCCCCC (stereo unspecified) [CL(63:1)]
421 Å²	CCCCCC/C=C\CCCCCCCC(=O)OC(COC(=O)CCCCCCCCCCCCCC)COP(=O)(O)OCC(O)COP(=O)(O)OCC(COC(=O)CCCCCCCCCCCCCCC)OC(=O)CCCCCCC/C=C\CCCCCC (stereo unspecified) [CL(63:2)]
418.5 Å²	CCCCCC/C=C\CCCCCCCC(=O)OC(COC(=O)CCCCCCCCCCCCC)COP(=O)(O)OCC(O)COP(=O)(O)OCC(COC(=O)CCCCCCCCCCCCCCC)OC(=O)CCCCCCC/C=C\CCCCCC (stereo unspecified) [CL(62:2)]
419.8 Å²	CCCCCC/C=C\CCCCCCCC(=O)OC(COC(=O)CCCCCCCCCCCCCCC)COP(=O)(O)OCC(O)COP(=O)(O)OCC(COC(=O)CCCCCCCCCCCCC)OC(=O)CCCCCCCCCCCCCCC (stereo unspecified) [CL(62:1)]
426.8 Å²	CCCCCC/C=C\CCCCCCCC(=O)OC(COC(=O)CCCCCCCCCCCCCCC)COP(=O)(O)OCC(O)COP(=O)(O)OCC(COC(=O)CCCCCCCCCCCCCCC)OC(=O)CCCCCCC/C=C\CCCCCCCC (stereo unspecified) [CL(66:2)]

Same assay, conditions: [M+H]+; instrument: TW; calibrated with phosphatidylcholines (ESI+) and phosphatidylethanolamines (ESI-), doubly charged cardiolipins calibrated with poly-DL-…

collision cross section (N2)	Structure (SMILES)
213.91 Å²	CCCCCCCCCCCCCCCC(=O)OC[C@@H](O)COP(=O)([O-])OCC[NH3+] [LPE(16:0/0:0)]
275.82 Å²	CCCCCC/C=C\CCCCCCCC(=O)OCC(COP(=O)(O)OCCN)OC(=O)CCCCCCCC1CC1CCCCCCCC (stereo unspecified) [PE(35:2)]
280.06 Å²	CCCCCCCC/C=C\CCCCCCCC(=O)OC(COC(=O)CCCCCCCCCCCCCCCCC)COP(=O)(O)OCCN (stereo unspecified) [PE(36:1)]
208.79 Å²	CCCCCCCCCCCCCC(=O)O[C@H](CO)COP(=O)([O-])OCC[NH3+] [LPE(0:0/14:0)]
265.08 Å²	CCCCCCCCCCCCCCCC(=O)OCC(COP(=O)(O)OCCN)OC(=O)CCCCCCCC1CC1CCCC (stereo unspecified) [PE(31:1)]

Same assay, conditions: [M+Na]+; instrument: TW; calibrated with phosphatidylcholines (ESI+) and phosphatidylethanolamines (ESI-), doubly charged cardiolipins calibrated with poly-DL-…

Structure (SMILES)	collision cross section (N2)
CCCCCCCC/C=C\CCCCCCCC(=O)OC(COC(=O)CCCCCCCCCCCCCCC)COP(=O)(O)OCC(O)CO (stereo unspecified) [PG(34:1)]	281.03 Å²
CCCCCCCCCCCCCCCC(=O)OC[C@@H](O)COP(=O)([O-])OCC[NH3+] [LPE(16:0/0:0)]	220.01 Å²
CCCCCCCCCCCCCC(=O)O[C@H](CO)COP(=O)([O-])OCC[NH3+] [LPE(0:0/14:0)]	213.66 Å²

Now from value to molecule:

collision cross section (N2)	Structure (SMILES)
268.07 Å²	CCCCCC/C=C\CCCCCCCC(=O)OCC(COP(=O)(O)OCC(O)CO)OC(=O)CCCCCCCCCCCCC (stereo unspecified) [PG(30:1)]
272.38 Å²	CCCCCC/C=C\CCCCCCCC(=O)OCC(COP(=O)(O)OCC(O)CO)OC(=O)CCCCCCC/C=C\CCCCCC (stereo unspecified) [PG(32:2)]
280.56 Å²	CCCCCCCCCCCCCCCC(=O)OCC(COP(=O)(O)OCC(O)CO)OC(=O)CCCCCCCC1CC1CCCCCC (stereo unspecified) [PG(33:1)]
333.1 Å²	CCCCCC/C=C\CCCCCCCC(=O)OC[C@H](COP(=O)(O)OC[C@@H](O)COC(=O)CCCCCCCCCCCCCCC)OC(=O)CCCCCCC/C=C\CCCCCCCC [AcylPG(50:2)]

Same assay, conditions: [M-2H]2-; instrument: TW; calibrated with phosphatidylcholines (ESI+) and phosphatidylethanolamines (ESI-), doubly charged cardiolipins calibrated with poly-DL-…

collision cross section (N2)	Structure (SMILES)
394.72 Å²	CCCCCC/C=C\CCCCCCCC(=O)OC(COC(=O)CCCCCCCCCCCCCCC)COP(=O)(O)OCC(O)COP(=O)(O)OCC(COC(=O)CCCCCCCCCCCCCC)OC(=O)CCCCCCCCCCCCCCC (stereo unspecified) [CL(63:1)]
394.34 Å²	CCCCCC/C=C\CCCCCCCC(=O)OC(COC(=O)CCCCCCCCCCCCCC)COP(=O)(O)OCC(O)COP(=O)(O)OCC(COC(=O)CCCCCCCCCCCCCCC)OC(=O)CCCCCCC/C=C\CCCCCC (stereo unspecified) [CL(63:2)]
407.34 Å²	CCCCCCCC/C=C\CCCCCCCC(=O)OCC(COP(=O)(O)OCC(O)COP(=O)(O)OCC(COC(=O)CCCCCCCCCCCCCCC)OC(=O)CCCCCCC/C=C\CCCCCCCC)OC(=O)CCCCCCCCCCCCCCC (stereo unspecified) [CL(68:2)]
402.26 Å²	CCCCCC/C=C\CCCCCCCC(=O)OC(COC(=O)CCCCCCCCCCCCCCC)COP(=O)(O)OCC(O)COP(=O)(O)OCC(COC(=O)CCCCCCCCCCCCCCC)OC(=O)CCCCCCC/C=C\CCCCCCCC (stereo unspecified) [CL(66:2)]

Same assay, conditions: [M-H]-; instrument: TW; calibrated with phosphatidylcholines (ESI+) and phosphatidylethanolamines (ESI-), doubly charged cardiolipins calibrated with poly-DL-…

collision cross section (N2)	Structure (SMILES)
270.03 Å²	CCCCCCCC/C=C\CCCCCCCC(=O)OC(COC(=O)CCCCCCCCCCCCCCC)COP(=O)(O)OCC(O)CO (stereo unspecified) [PG(34:1)]
206.89 Å²	CCCCCCCCCCCCCCCC(=O)OC[C@@H](O)COP(=O)([O-])OCC[NH3+] [LPE(16:0/0:0)]
265.69 Å²	CCCCCC/C=C\CCCCCCCC(=O)OCC(COP(=O)(O)OCCN)OC(=O)CCCCCCCC1CC1CCCCCCCC (stereo unspecified) [PE(35:2)]
261.31 Å²	CCCCCC/C=C\CCCCCCCC(=O)OCC(COP(=O)(O)OCC(O)CO)OC(=O)CCCCCCC/C=C\CCCCCC (stereo unspecified) [PG(32:2)]
259.86 Å²	CCCCCCCC/C=C\CCCCCCCC(=O)OCC(COP(=O)(O)O)OC(=O)CCCCCCC/C=C\CCCCCCCC (stereo unspecified) [PA(36:2)]
